These results are taken from the METLIN SMRT retention time set (Domingo-Almenara et al. 2019).

The series in a line: gradient 5% acetonitrile 3 min, to 50% in 2 min, to 85% in 15 min, held 3 min, 100 µL/min. To be noted: column: Zorbax Extend-C18 2.1 x 50 mm; eluents: water / acetonitrile, 0.1% formic acid. In short, it runs like this:
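Over 3 months, pure standards in mixtures of ~100 molecules were run by HPLC coupled to a quadrupole time-of-flight mass spectrometer in positive and negative ionization mode. The column was a Zorbax Extend-C18 (2.1 × 50 mm, 1.8 μm) at 100 μL/min, eluted with water and acetonitrile each holding 0.1% formic acid, with 40 μL dead and 900 μL dwell volumes. Retention time was determined from adduct peaks chosen by software and checked manually.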
With `Cc1ccc(S(=O)(=O)c2cnc(N3CCN(c4ccccc4Cl)CC3)nc2N)cc1C`, the RP-LC retention time was found to be 1280 s.

Regarding `CCc1nn2c(CNC(=O)c3ccccc3Cl)c(C)nc2s1`, the RP-LC retention time amounted to 650 s.

In turn, `CCCc1noc(-c2ccc3nnc(CC(=O)Nc4ccc(C)c(C)c4)n3c2)n1` displayed an RP-LC retention time of 940 s.

`COc1ccc(Cn2c(C(C)C)nc3sc4ccccc4c(=O)c3c2=O)cc1`: the RP-LC retention time was 975 s.

On to `CCN(CC)S(=O)(=O)c1cc(-c2nnc(-c3cccc(C)c3)o2)ccc1Cl`, for which the RP-LC retention time stood at 1200 s.

`Cc1ccc2nc(C(=O)NCc3cc(F)cc(F)c3)cn2c1`: the RP-LC retention time came out at 695 s.

In the case of `Cc1nc(C)c(CCNC(=O)c2ccc(C)c([N+](=O)[O-])c2)s1`, the RP-LC retention time stood at 614 s.

Compound `O=C1C(=O)N(Cc2ccc(C(=O)N3CCCCC3)cc2)CCN1Cc1ccc(F)cc1` returned an RP-LC retention time of 735 s.

For `CCOC(=O)c1[nH]c(C)c(C(=O)C(C)N(CC(C)C)C(=O)c2ccc(Cl)cc2)c1C` (configuration not stated), the RP-LC retention time turned out to be 1080 s.

Take `O=C(Cn1cnc2ccccc21)N1CCN(C(=O)C2CC2c2cccs2)CC1` (configuration not stated): the RP-LC retention time worked out at 592 s.

Take `CCc1nnc2cc(N3CCN(S(=O)(=O)c4ccc(C)cc4)CC3)cnn12`: the RP-LC retention time turned out to be 732 s.

The compound `CCn1c(=O)c(N2CCC(NC(=O)Nc3cc(C)cc(C)c3)CC2)nc2cccnc21` gave an RP-LC retention time of 1010 s.

`CCn1c(=O)c(N2CCC(C(=O)NCCc3c[nH]c4ccc(C)cc34)CC2)nc2cccnc21`: the RP-LC retention time came to 984 s.

As to `O=C(NC1CCc2ccccc21)C1CCN(C(=O)c2ncn3c2COC(c2ccccc2)C3)CC1` (configuration not stated), the RP-LC retention time stood at 809 s.

In the case of `COc1cc(OC)cc(-c2nnc(Cc3nc(-c4ccc(C)cc4)no3)o2)c1`, the RP-LC retention time is 1080 s.

As for `NC(=O)c1oc2ccccc2c1NC(=O)C1CCCCN1S(=O)(=O)c1cccs1` (configuration not stated), the RP-LC retention time turned out to be 825 s.

Take `Cc1ccc(Cl)cc1NC(=O)Cc1c(C)nn(-c2nc(-c3ccccc3)cs2)c1C`: the RP-LC retention time was 1230 s.

As to `COCCc1nncn1C1CCN(S(=O)(=O)c2cccc(C(F)(F)F)c2)CC1`, the RP-LC retention time worked out at 752 s.

For `Cc1ccc(NC(=O)Cn2cccc2-c2nnc(C3CCC3)o2)c(C)c1`, the RP-LC retention time is 963 s.

With `CCNC(=O)c1n[nH]c2c1CN(C(=O)c1ccc(OC(F)(F)F)cc1)CC2`, the RP-LC retention time turned out to be 728 s.

Regarding `Cc1ccccc1CNC(=O)c1cn(C)nc1S(=O)(=O)N1CCSCC1`, the RP-LC retention time turned out to be 887 s.

In the case of `COc1ccc(-c2noc(-c3nnn4c3COC(c3ccc(F)cc3)C4)n2)c(OC)c1` (configuration not stated), the RP-LC retention time came out at 836 s.

The compound `O=C(c1ccoc1)N1CCCC(c2nnc3n2CCN(C(=O)C2CC2)C3)C1` (configuration not stated) displayed an RP-LC retention time of 591 s.

`CC(C)S(=O)(=O)c1cc2c(cc1NC(=O)c1ccc(Br)cc1)n(C)c(=O)n2C` had an RP-LC retention time of 951 s.

The compound `CN(C)C(=O)c1cn(C2CN(C(=O)CCc3c[nH]c4ccccc34)C2)nn1` came in with an RP-LC retention time of 652 s.

`CN(C)C(=O)c1n[nH]c2c1CN(C(=O)c1cccc(C(F)(F)F)c1)CC2` gave an RP-LC retention time of 673 s.

On to `COc1ccc2c(c1)C1(CCN(C(=O)Nc3ccccc3OC)C1)C(=O)N2` (configuration not stated), for which the RP-LC retention time was 722 s.

Turning to `Cc1csc(-c2cc(S(=O)(=O)NCC(C)c3ccccc3)c(C)s2)n1` (configuration not stated), the RP-LC retention time amounted to 1110 s.

Turning to `Cc1ccc(N2CC(c3noc(COc4cccc(C)c4)n3)CC2=O)cc1` (configuration not stated), the RP-LC retention time was 1050 s.

With `c1cc(-c2nc(-c3ccc(OC4CNC4)cc3)no2)ccn1`, the RP-LC retention time was 604 s.

`COc1ccc(NC(=O)CN2C(=O)c3ccccc3C2=O)c2ccccc12` yielded an RP-LC retention time of 782 s.

Compound `Cc1ccc(CN2CCC(CNC(=O)c3cc(=O)n(C)c4c3c(=O)n(C)c(=O)n4C)CC2)cc1` returned an RP-LC retention time of 625 s.

In the case of `COc1ccc(NC(=O)CSc2nccc(N3CCN(c4cccc(OC)c4)CC3)n2)cc1`, the RP-LC retention time came out at 735 s.

In turn, `CN(c1ccc(F)cc1)S(=O)(=O)N1CCCC(C(=O)NCCCN2CCc3ccccc3C2)C1` (configuration not stated) displayed an RP-LC retention time of 706 s.

`CCOC(=O)c1c(S(=O)(=O)N2CCC(C(=O)Nc3cc(C)cc(C)c3)CC2)c(C)n(C)c1C` registered an RP-LC retention time of 942 s.

The compound `CCc1nnc(NC(=O)CSc2nc3ccccc3[nH]2)s1` gave an RP-LC retention time of 656 s.

`COc1ccc(NC(C)=O)cc1NC(=O)C1CC(=O)N(c2n[nH]c3cccc(F)c23)C1` (configuration not stated) yielded an RP-LC retention time of 634 s.

In turn, `O=C(Nc1ccc(S(=O)(=O)N2CCc3ccccc32)cc1)c1ccc(Br)o1` yielded an RP-LC retention time of 960 s.

`O=C(CCC[C@@H]1[C@H]2CCCN3CCC[C@@H](CN1C(=O)c1cccnc1)[C@@H]23)N1CCN(c2ncccn2)CC1` had an RP-LC retention time of 578 s.

`CCn1c(C)c(-c2nc(C3CC3)no2)c(S(=O)(=O)NCC2CCCO2)c1C` (configuration not stated): the RP-LC retention time is 768 s.

Turning to `CCOC(=O)/C=C/c1ccc(C(=O)OCC)[nH]1`, the RP-LC retention time amounted to 947 s.

Take `Cc1[nH]c(C)c(S(=O)(=O)N2CCC(C(=O)N3CCC(C)CC3)CC2)c1C(=O)N1CCCCC1`: the RP-LC retention time was 760 s.

Take `O=C(C1CC(=O)N(c2ccc3c(c2)CCN3C(=O)C2CCC2)C1)N1CCCCC1` (configuration not stated): the RP-LC retention time is 760 s.

In turn, `CCS(=O)(=O)N1CC(=O)N(c2ccc(F)cc2C)C(C)(C(=O)NC2CCCCCC2)C1` (configuration not stated) gave an RP-LC retention time of 925 s.

For the compound `CCOC(=O)c1cccc(NC(=O)C2CCCN(c3ccc(=O)n(-c4cccc(Cl)c4)n3)C2)c1` (configuration not stated), the RP-LC retention time came out at 994 s.

Compound `COc1ccccc1-c1nnc(-c2ccc(OC)c(S(=O)(=O)N3CCCC3)c2)o1` returned an RP-LC retention time of 830 s.

As to `CCOC(=O)CCC(=O)Nc1ccc(-c2nnc(N(C)c3ccccc3)s2)cc1`, the RP-LC retention time was 702 s.

Take `CC(=O)Nc1cccc(-n2cc3c(c2-c2ccccc2Cl)c(=O)n(C)c(=O)n3C)c1`: the RP-LC retention time is 768 s.

`Cc1nc2cc(-c3noc(Cc4cccc(Cl)c4)n3)ccc2o1` returned an RP-LC retention time of 1070 s.

On to `Cc1ccc(N2CCN(C(=O)c3nnc(-c4ccc(S(=O)(=O)N5CCCC5)cc4)o3)CC2)c(C)c1`, for which the RP-LC retention time was determined as 1190 s.

Compound `O=C(C1=CN(c2cccc(Cl)c2)c2ccccc2S1(=O)=O)N1CCCC1` gave an RP-LC retention time of 814 s.

As to `COc1ccc(C)cc1NS(=O)(=O)c1cc(-c2c(C)noc2NC(C)=O)ccc1C`, the RP-LC retention time was found to be 804 s.

`COc1cc(CN2C[C@@H](CO)[C@H](N(C)C)C2)ccc1OC(C)C` displayed an RP-LC retention time of 554 s.

In turn, `Cn1c(=O)sc2cc(S(=O)(=O)N3CCC(C(=O)NC4CCCCCCC4)CC3)ccc21` registered an RP-LC retention time of 931 s.

The compound `O=[N+]([O-])c1c(NCCCO)cc(N2CCN(c3ccccn3)CC2)c2nonc12` had an RP-LC retention time of 584 s.

`Cc1nnc(-c2ccc(S(=O)(=O)N3CCCC(C)C3)o2)o1` (configuration not stated) showed an RP-LC retention time of 836 s.

Consider `O=C(NC1CC1)C1CCN(c2nnc(-c3ccccc3)o2)CC1`, for which the RP-LC retention time came out at 657 s.

The compound `CCCOCCOC(=O)C1=C(C)NC2=C(C(=O)CCC2)C1c1ccc(OC)cc1OC` (configuration not stated) yielded an RP-LC retention time of 792 s.

Regarding `CCOC(=O)CC(NC(=O)NCc1ccnc(N2CCCCC2)c1)c1ccccc1` (configuration not stated), the RP-LC retention time amounted to 645 s.

`COc1ccccc1NC1=NS(=O)(=O)c2ccccc21` returned an RP-LC retention time of 769 s.

In turn, `Cc1ccc(C)c(N(C)C(=O)C2CCCN(c3ncnc4c3nc3n4CCCCC3)C2)c1` (configuration not stated) gave an RP-LC retention time of 899 s.

As to `COc1ccc(Cn2nc3ccc(S(=O)(=O)N4CCCCCC4)cn3c2=O)cc1`, the RP-LC retention time is 935 s.

`Cc1ccc(C)c(NC(=O)CCc2nc(N3CCOCC3)c3c(C)noc3n2)c1`: the RP-LC retention time was determined as 763 s.

Regarding `CC1=C(C(=O)Nc2ccc(Cl)cc2C(=O)NC(C)c2ccccc2)SCCO1` (configuration not stated), the RP-LC retention time amounted to 1190 s.

In the case of `O=c1n(Cc2cccc(F)c2)nc2c(S(=O)(=O)N3CCCC3)cccn12`, the RP-LC retention time is 1050 s.

As to `CSc1ccc(-c2nc3ccc(Cl)cn3c2Nc2ccc(C)cc2)cc1`, the RP-LC retention time came to 954 s.

The compound `Cc1ccc(S(=O)(=O)N2CCc3c(c(-c4nnc(-c5ccccc5F)o4)nn3C)C2)cc1Cl` gave an RP-LC retention time of 1040 s.

In the case of `Fc1ccc(CN2CCC(N3CC4(CCCCC4)C3c3ccncc3)CC2)cc1F` (configuration not stated), the RP-LC retention time is 604 s.

For `O=C(NCc1ccco1)c1c2c(nc3ccccc13)C(=O)N(C1CCCCC1)C2`, the RP-LC retention time came to 808 s.

For `CC(C)CNC(=O)COc1cccc2ccccc12`, the RP-LC retention time is 896 s.

`N#Cc1ccsc1NC(=O)c1cccc(Cl)c1` registered an RP-LC retention time of 861 s.

For `Cc1noc(COC2CCN(C(=O)CCc3c(C)noc3C)CC2)n1`, the RP-LC retention time was 661 s.

`Cc1ccc(-c2nc3cnccn3c2Nc2ccc(C(=O)NCc3ccco3)cc2)cc1` registered an RP-LC retention time of 753 s.

Regarding `C=CCN1CC(c2nc3ccccc3n2CC(O)COc2cccc(C)c2)CC1=O` (configuration not stated), the RP-LC retention time is 721 s.

`O=S(=O)(NCc1nc(-c2cccc(-c3csc(C4CC4)n3)c2)no1)c1ccccc1` yielded an RP-LC retention time of 1080 s.

In turn, `COc1cccc2c1OC1(C)CC2NC(=O)N1c1cccc(C(=O)N2CCN(c3ccccn3)CC2)c1` (configuration not stated) gave an RP-LC retention time of 588 s.

In turn, `COc1ccc(-c2noc(C3CCCN3C(=O)Nc3ccc(F)cc3F)n2)cc1` (configuration not stated) returned an RP-LC retention time of 963 s.
